Target: human catalytic domain HDAC4 protein (amino acids 648-1032) (Homo sapiens (Human), UniProt P56524)
Assay: Inhibition of HDAC4 catalytic domain enzymatic activity, fluorogenic substrate Boc-Lys(Tfa)-AMC
Conditions: read-out: Biochemical HDAC-4 IC50
Excerpt: The potency of Class IIa Histone Deacetylase (HDAC) inhibitors is quantified by measuring the Histone Deacetylase 4 (HDAC4) catalytic domain enzymatic activity using the fluorogenic substrate, Boc-Lys(Tfa)-AMC. The substrate is deacetylated to Boc-Lys-AMC by HDAC4. Cleavage by trypsin results in the release of the fluorophore AMC from the deacetylated substrate. The fluorescence of the sample is directly related to the histone deacetylase activity in the sample.
Serial dilutions of the HDAC inhibitors and control reference compound (1-(5-(3-((4-(1,3,4-oxadiazol-2-yl)phenoxy)methyl)-1,2,4-oxadiazol-5-yl)thiophen-2-yl)-2,2,2-trifluoroethanone) are made by first resuspending the lyophilized compound to a final concentration of 10 mM in 100% dimethyl sulfoxide (DMSO). Stocks of 60 μl aliquots of the 10 mM compound in DMSO are prepared and stored at −20° C. From one stock aliquot of each compound to be tested and the reference compound, a 16-point serial dilution is prepared according to Table 7 using a 125 μl 16-channel Matrix multi-channel pipette (Matrix Technologies Ltd). […]
5 μl of each solution of 1:20 diluted compound from above is transferred to a clear bottomed, black, 384-well assay plate using the Bravo or the Janus (384-well MDT head from Perkin Elmer). […] Finally, the fluorescence is measured (Excitation: 355 nm, Emission: 460 nm) using PerkinElmer EnVision in top read mode.

Chain of human catalytic domain HDAC4 protein (amino acids 648-1032) (P56524 648-1032): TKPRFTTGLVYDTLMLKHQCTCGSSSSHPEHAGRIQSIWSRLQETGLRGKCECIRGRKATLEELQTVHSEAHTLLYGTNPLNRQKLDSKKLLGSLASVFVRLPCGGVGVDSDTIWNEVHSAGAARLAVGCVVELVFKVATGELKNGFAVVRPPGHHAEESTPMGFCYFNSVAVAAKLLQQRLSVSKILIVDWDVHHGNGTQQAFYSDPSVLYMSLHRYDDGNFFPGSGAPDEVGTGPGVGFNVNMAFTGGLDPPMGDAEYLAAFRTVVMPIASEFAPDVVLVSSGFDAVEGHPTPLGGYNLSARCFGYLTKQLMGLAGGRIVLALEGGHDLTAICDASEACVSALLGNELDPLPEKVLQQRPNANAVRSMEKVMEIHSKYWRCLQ

| IC50 | SMILES |
| --- | --- |
| 40 nM | Cc1ncc(C2=C[C@](C(=O)NO)(c3cccc(F)c3C)CC2)cn1 [Example 10, (S)-1-(3-fluoro-2-methylphenyl)-N-hydroxy-3-(2-methylpyrimidin-5-yl)cyclopent-2-enecarboxamide] |

System: cellular histone deacetylase enzymatic activity in Jurkat E6-1 cells
Assay: Inhibition of cellular HDAC activity in Jurkat E6-1 cells, fluorogenic substrate Boc-Lys(Tfa)-AMC
Type: cell-based
Conditions: Homo sapiens, read-out: Cell IC50
Excerpt: Example 50: Analysis of Inhibition of Cellular HDAC Activity with Class IIa Histone Deacetylase (HDAC) Inhibitors
The potency of Class IIa Histone Deacetylase (HDAC) inhibitors is quantified by measuring the cellular histone deacetylase enzymatic activity using the fluorogenic substrate, Boc-Lys(Tfa)-AMC. After penetration in Jurkat E6-1 cells, the substrate is deacetylated to Boc-Lys-AMC. After cell lysis and cleavage by trypsin, the fluorophore AMC is released from the deacetylated substrate only. The fluorescence of the sample is directly related to the histone deacetylase activity in the sample.
Jurkat E6.1 cells are cultured according to standard cell culture protocols in Jurkat E6.1 Growth Media (RPMI without phenol red, 10% FBS, 10 mM HEPES, and 1 mM Sodium Pyruvate). Jurkat E6.1 cells are counted using a Coulter Counter and resuspended in Jurkat E6.1 growth media at a concentration of 75,000 cells/35 μl. 35 μl or 75,000 cells is seeded into Greiner microtitre assay plates. The plates are then incubated at 37° C. and 5% CO2 while other assay components are being prepared.
Serial dilutions of the HDAC inhibitors and control reference compound (1-(5-(3-((4-(1,3,4-oxadiazol-2-yl)phenoxy)methyl)-1,2,4-oxadiazol-5-yl)thiophen-2-yl)-2,2,2-trifluoroethanone) are made by first resuspending the lyophilized compound to a final concentration of 10 mM in 100% DMSO. Stocks of 70 μl aliquots of the 10 mM compound in DMSO are prepared and stored at −20° C. From one stock aliquot of each compound to be tested and the reference compound, a 16-point serial dilution is prepared according to Table 1 using a 125 μl 16-channel Matrix multi-channel pipette.
2 μl (200×) of each diluted solution and each control (full activity: 100% DMSO alone or full inhibition 1 mM) is stamped into V-bottom polypropylene 384-well compound plates using either the Bravo, Janus, or 12.5 μl 16-channel Matrix multi-channel pipette. Each well with the 200× compound solution is diluted 1:20 by the addition of 38 μl Jurkat assay buffer+DMSO (9.5% DMSO, RPMI without phenol red, 0.09% FBS, 9 mM Hepes, and 0.9 mM Sodium Pyruvate equilibrated to room temperature)
5× (500 μM) substrate is prepared just prior to the addition to the assay. The 5× substrate is prepared by diluting a 100 mM Boc-Lys(Tfa)-AMC in DMSO solution 1:200 by adding it drop-wise to Jurkat assay medium (RPMI without phenol red, 0.1% FBS, 10 mM Hepes, and 1 mM Sodium Pyruvate equilibrated to 37° C.) while vortexing at slow speed to prevent precipitation.
10 ml of 3× lysis buffer is prepared with 8.8 ml of 3× stock lysis buffer (50 mM Tris-HCl, pH 8.0, 137 mM NaCl, 2.7 mM KCl, 1 mM MgCl2, 1% Nonidet P40 Substitute equilibrated to room temperature) and 1.2 ml of 3 mg/ml Trypsin equilibrated to room temperature.
5 μl of each solution of 1:20 diluted compound from above is transferred to the Greiner microtitre assay plates with 75,000 cells/well using the Bravo. Cells are then incubated for 2 hours at 37° C. and 5% CO2. The assay is then started by adding 10 μl of 5× (500 μM) substrate to the assay plate using either the Bravo or 16-channel Matrix multi-channel pipette. The cells are then incubated for 3 hours at 37° C. and 5% CO2. Next, 25 μl of 3× lysis buffer is added to each well using either the 125 μl 16 channel pipette or the Bravo. The assay plate is then incubated overnight (15-16 hours) at 37° C. and 5% CO2. The following day, the plates are shaken on an orbital shaker for 1 minute at 900 rpm. Finally the top read fluorescence (Excitation: 355 nm, Emission: 460 nm) is measured using PerkinElmer EnVision.

| IC50 | SMILES |
| --- | --- |
| 380 nM | Cc1ncc(C2=C[C@](C(=O)NO)(c3cccc(F)c3C)CC2)cn1 [Example 10, (S)-1-(3-fluoro-2-methylphenyl)-N-hydroxy-3-(2-methylpyrimidin-5-yl)cyclopent-2-enecarboxamide] |
| > 50000 nM | O=C(NO)[C@@]1(c2ccccc2)C=C(c2ccccc2)CC1 [Example 34, (R)-N-hydroxy-1,3-diphenylcyclopent-2-enecarboxamide] |
| 4600 nM | Cc1ccccc1C1=C[C@@](C(=O)NO)(c2cccc(F)c2C)CC1 [Example 3, (R)-1-(3-fluoro-2-methyl-phenyl)-N-hydroxy-3-(o-tolyl)cyclopent-2-ene-1-carboxamide] |
| 140 nM | Cc1c(F)cccc1[C@@]1(C(=O)NO)C=C(c2ccc3nc(C(F)(F)F)cnc3c2)CC1 [Example 20, (S)-1-(3-fluoro-2-methylphenyl)-N-hydroxy-3-(2-(trifluoromethyl)quinoxalin-6-yl)cyclopent-2-enecarboxamide] |
| 200 nM | Cc1c(F)cccc1[C@@]1(C(=O)NO)C=C(c2cccc3cnsc23)CC1 [Example 29, (S)-3-(benzo[d]isothiazol-7-yl)-1-(3-fluoro-2-methylphenyl)-N-hydroxycyclopent-2-enecarboxamide] |
| 500 nM | Cc1c(F)cccc1[C@@]1(C(=O)NO)C=C(c2cc(F)cnc2C2CC2)CC1 [Example 19, (S)-3-(2-cyclopropyl-5-fluoropyridin-3-yl)-1-(3-fluoro-2-methylphenyl)-N-hydroxycyclopent-2-enecarboxamide] |
| 2500 nM | O=C(NO)[C@]1(c2ccccc2)C=C(c2ccccc2)CC1 [Example 33, (S)-N-hydroxy-1,3-diphenylcyclopent-2-enecarboxamide] |
| 330 nM | Cc1c(F)cccc1[C@@]1(C(=O)NO)C=C(c2ccnn2C)CC1 [Example 27, (S)-1-(3-fluoro-2-methylphenyl)-N-hydroxy-3-(1-methyl-1H-pyrazol-5-yl)cyclopent-2-enecarboxamide] |
| 310 nM | Cc1c(F)cccc1[C@@]1(C(=O)NO)C=C(c2ccc(F)cn2)CC1 [Example 15, (S)-1-(3-fluoro-2-methylphenyl)-3-(5-fluoropyridin-2-yl)-N-hydroxycyclopent-2-enecarboxamide] |
| 3100 nM | O=C(NO)[C@]1(c2ccccc2)C=C(c2cncc(F)c2)CC1 [Example 35, (S)-3-(5-fluoropyridin-3-yl)-N-hydroxy-1-phenylcyclopent-2-enecarboxamide] |
| 20 nM | Cc1c(F)cccc1[C@@]1(C(=O)NO)C=C(c2ccc3nccnc3c2)CC1 [Example 12, (S)-1-(3-fluoro-2-methylphenyl)-N-hydroxy-3-(quinoxalin-6-yl)cyclopent-2-enecarboxamide] |
| 520 nM | Cc1c(F)cccc1C1(C(=O)NO)CC=C(c2ccc3nccnc3c2)CC1 (stereo not shown) [Example 45, 3′-fluoro-N-hydroxy-2′-methyl-4-(quinoxalin-6-yl)-1,2,3,6-tetrahydro-[1,1′-biphenyl]-1-carboxamide] |
| 15700 nM | Cc1c(F)cccc1[C@@]1(C(=O)NO)C=C(c2cnccn2)CC1 [Example 8, (S)-1-(3-fluoro-2-methylphenyl)-N-hydroxy-3-(pyrazin-2-yl)cyclopent-2-ene carboxamide] |
| 40 nM | Cc1c(F)cccc1[C@@]1(C(=O)NO)C=C(c2cc3ccccc3s2)CC1 [Example 41, (S)-3-(benzo[b]thiophen-2-yl)-1-(3-fluoro-2-methylphenyl)-N-hydroxycyclopent-2-enecarboxamide] |
| 60 nM | Cc1c(F)cccc1[C@@]1(C(=O)NO)C=C(c2ccn3ccnc3c2)CC1 [Example 21, (S)-1-(3-fluoro-2-methylphenyl)-N-hydroxy-3-(imidazo[1,2-a]pyridin-7-yl)cyclopent-2-enecarboxamide] |

— patent US10106535B2, “Histone deacetylase inhibitors and compositions and methods of use thereof” (CHDI Foundation, Inc., priority 2013, dated 2018)
